Data published in PMC11240139, “Exploring the antitumor potential of novel quinoline derivatives via tubulin polymerization inhibition in breast cancer; design, synthesis and molecular docking” (RSC Advances, 2024).

What was measured:
MDA-MB-231 cells [1] = test: Cell cycle analysis by flow cytometry (PI); format: cell-based; conditions: MDA-MB-231, IC50 dose, 24 h; control 10.42%
Procedure: Propidium Iodide Flow Cytometry Kit for Cell Cycle Analysis (Abcam) was used according to manufacturer's instructions. Briefly, MDA-MB 231 cells (2 × 10^5 cells) were seeded in 6-well plates and cultured for 24 h. […] Cells were collected, washed with PBS and centrifuged. Subsequently, the cells were re-suspended and fixed in 66% ethanol on ice for at least 2 h. The cells were stained with a working solution containing propidium iodide (PI) in the dark at 37 °C for 30 min. DNA content of the cells were measured by flow cytometry using FACSCalibur (BD Biosciences, Mountain View, CA). The data were analyzed using the CellQuest software (BD Biosciences).[21]

MDA-MB-231 cells [2] = test: Cell apoptosis analysis (annexin V-FITC/PI); format: cell-based; conditions: MDA-MB-231, IC50 dose, 24 h
Procedure: Annexin-V-FITC Apoptosis Detection Kit (Biovision, USA) was used to determine apoptotic cells according to manufacturer's instructions. Briefly, MDA-MB 231 cells (2 × 10^5 cells) were seeded in 6-well plates and cultured for 24 h. […] Cells were collected, washed with PBS and centrifuged. The cells were re-suspended in 500 μL of 1× binding buffer. 5 μL of annexin V-FITC and 5 μL of propidium iodide (PI […]) were added and the cells were incubated in the dark at room temperature for 5 min. The fluorescence of the stained cells was analyzed by flow cytometry using FACSCalibur (BD Biosciences, Mountain View, CA). The data were analyzed using the CellQuest software (BD Biosciences).[53,54]

tubulin = biological target: T1, tubulin (Sus scrofa, UniProt P02550+P02554); set-up: method as in PMID 33203182, PMID 36893547, PMID 33730937, PMID 30525584, PMID 30530194; conditions: Fig. 4; read-out: tubulin inhibition IC50; cited from earlier work
T1 construct: purchased Cytoskeleton, USA
T1 sequence (P02554 whole entry): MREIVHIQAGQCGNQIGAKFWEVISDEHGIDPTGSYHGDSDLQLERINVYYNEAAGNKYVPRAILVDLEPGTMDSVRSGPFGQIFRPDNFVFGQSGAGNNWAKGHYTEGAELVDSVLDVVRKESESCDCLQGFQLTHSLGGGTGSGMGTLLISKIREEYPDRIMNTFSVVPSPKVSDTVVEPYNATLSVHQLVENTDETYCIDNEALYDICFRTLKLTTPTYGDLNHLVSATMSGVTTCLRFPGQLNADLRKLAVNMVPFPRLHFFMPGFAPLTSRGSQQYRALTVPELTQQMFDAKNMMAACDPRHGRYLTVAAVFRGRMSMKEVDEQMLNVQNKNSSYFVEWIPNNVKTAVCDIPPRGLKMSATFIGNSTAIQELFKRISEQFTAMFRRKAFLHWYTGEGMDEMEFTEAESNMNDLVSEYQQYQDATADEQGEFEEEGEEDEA
T1 sequence (P02550 whole entry): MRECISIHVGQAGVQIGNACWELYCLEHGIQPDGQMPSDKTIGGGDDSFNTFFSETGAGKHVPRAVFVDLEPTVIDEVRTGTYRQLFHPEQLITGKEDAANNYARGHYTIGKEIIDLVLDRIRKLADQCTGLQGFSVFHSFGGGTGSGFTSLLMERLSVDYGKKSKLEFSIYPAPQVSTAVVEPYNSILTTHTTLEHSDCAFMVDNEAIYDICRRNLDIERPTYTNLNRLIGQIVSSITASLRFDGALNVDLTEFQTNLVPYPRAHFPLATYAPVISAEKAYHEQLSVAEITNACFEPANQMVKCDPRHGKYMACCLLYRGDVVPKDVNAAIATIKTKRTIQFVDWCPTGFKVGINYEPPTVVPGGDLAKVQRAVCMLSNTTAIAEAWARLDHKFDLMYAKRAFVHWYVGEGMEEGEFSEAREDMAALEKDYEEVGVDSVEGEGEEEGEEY

For `COc1cc2c(c(OC)c1OC)-c1ccc(OC)c(=O)cc1[C@@H](NC(C)=O)CC2` [Colchicine, colchicine], the “cells population at G2 and M phases” value (MDA-MB-231 cells [1]) was 26.51%, the “Early Apoptosis (%)” value (MDA-MB-231 cells [2]) was 19.19 ± 0.87% and the “Late Apoptosis (%)” value (MDA-MB-231 cells [2]) was 6.62 ± 0.75%. The “Necrosis (%)” value (MDA-MB-231 cells [2]) was 11.41 ± 2.8%, the “Total Cell Death (%)” value (MDA-MB-231 cells [2]) was 37.22 ± 2.8% and the “Necrosis (%)” value (MDA-MB-231 cells [2]; listed as colchicine) was 11.41%.

For `C=C(c1ccc2c(ccn2C)c1)c1cc(C)nc2ccccc12` [XIII], the IC50 (tubulin) is given as 2.09 µM.

For `COc1ccc(OC)c(/C=C/C(=O)c2ccc(NC(=O)COc3cccc4cccnc34)cc2)c1` [X], the IC50 (tubulin) is given as 5.32 µM.

In the case of `COc1ccc2nc(Cl)c(C3CC(c4ccc(N)cc4)=NN3c3ccccc3)cc2c1` (stereo not shown) [XIV], the IC50 (tubulin) is given as 0.00911 µM.

For `COc1cc(C(=O)N/N=C/c2cc3ccc(OC(C)C)cc3nc2OC)cc(OC)c1OC` [IX], the IC50 (tubulin) is listed as 1.32 µM.
